# Test results taken from PubChem BioAssay AID504571 (Southern Research Specialized Biocontainment Screening …, 2011).
# System: human PBMC cytotoxicity, percent of cell control
# Test: cytotoxicity in human PBMC, dose response, cytotoxicity control for HIV-1 antiviral lead project, cell-based, PBMC assay companion, set 2 (AID 504571)
row,Structure (SMILES),CC50 [µM]
1,Cc1c2c(=O)n(-c3nc4ccccc4s3)nc-2cc(O)n1Cc1cccnc1,2.24
2,COc1ccccc1Cn1c(O)cc2nn(-c3nc4ccccc4s3)c(=O)c-2c1C,29.6
3,Cc1c2c(=O)n(-c3nc4ccccc4s3)nc-2cc(O)n1CCc1cccs1,40.8
4,Cc1c2c(=O)n(-c3nc4ccccc4s3)nc-2cc(O)n1Cc1ccccc1Cl,35.6
5,Cc1c2c(=O)n(-c3nc4ccccc4s3)nc-2cc(O)n1CCC(C)C,45
6,Cc1c2c(=O)n(-c3nc4ccccc4s3)nc-2cc(O)n1C1CC1,5.72
7,Cc1c2c(=O)n(-c3nc4ccccc4s3)nc-2cc(O)n1CCc1ccc(O)cc1,2.55
8,COc1ccc(CCn2c(O)cc3nn(-c4nc5ccccc5s4)c(=O)c-3c2C)cc1,49.8
9,Cc1c2c(=O)n(-c3nc4ccccc4s3)nc-2cc(O)n1Cc1cccs1,14.2
10,Cc1c2c(=O)n(-c3nc4ccccc4s3)nc-2cc(O)n1Cc1ccncc1,2.64
11,COc1ccc(Cn2c(O)cc3nn(-c4nc5ccccc5s4)c(=O)c-3c2C)cc1,19.1
12,Cc1c2c(=O)n(-c3nc4ccccc4s3)nc-2cc(O)n1Cc1ccccc1,21
13,Cc1c2c(=O)n(-c3nc4ccccc4s3)nc-2cc(O)n1Cc1ccc(F)cc1,19.1
